Key:
[1] = tested on: 12 human primary cell-based systems; assay: BioMAP Diversity PLUS panel, protein biomarker readouts and cytotoxicity
From the text: This example describes testing the compound prepared in Example 1 in the BioMAP Diversity PLUS (Eurofins Discovery, Burlingame, California) panel of 12 human primary cell-based systems designed to model different aspects of the human body in an in vitro format. The 12 systems in the Diversity PLUS panel allow test agent characterization in an unbiased way across a broad set of systems modeling various human disease states. BioMAP systems are constructed with one or more primary cell types from healthy human donors, with stimuli (such as cytokines or growth factors) added to capture relevant signaling networks that naturally occur in human tissue or pathological conditions. Vascular biology is modeled in both a Th1 (3C system) and a Th2 (4H system) inflammatory environment, as well as in a Th1 inflammatory state specific to arterial smooth muscle cells (CASM3C system). Additional systems recapitulate aspects of the systemic immune response including monocyte-driven Th1 inflammation (LPS system) or T cell stimulation (SAg system), chronic Th1 inflammation driven by macrophage activation (lMphg system) and the T cell-dependent activation of B cells that occurs in germinal centers (BT system). The BE3C system (Th1) and the BF4T system (Th2) represent airway inflammation of the lung, while the MyoF system models myofibroblast-lung tissue remodeling. Lastly, skin biology is addressed in the KF3CT system modeling Th1 cutaneous inflammation and the HDF3CGF system modeling wound healing.
The X-axis lists the quantitative protein-based biomarker readouts measured in each system. The Y-axis represents a log-transformed ratio of the biomarker readouts for the drug-treated sample (n=1) over vehicle controls (n≥6). The grey region around the Y-axis represents the 95% significance envelope generated from historical vehicle controls. Biomarker activities are annotated when two or more consecutive concentrations change in the same direction relative to vehicle controls, are outside of the significance envelope, and have at least one concentration with an effect size >20% (|log 10 ratio|>0.1). Biomarker key activities are described as modulated if these activities increase in some systems, but decrease in others. Cytotoxicity is indicated on the profile plot by a thin black arrow above the X-axis, and antiproliferative effects are indicated by a thick grey arrow. Cytotoxicity and antiproliferative arrows only require one concentration to meet the indicated threshold for profile annotation. As summarized in Table 2 below, the compound was active with 35 annotated readouts. Specifically, the compound impacted inflammation-related activities (decreased Eotaxin 3, VCAM-1, MCP-1, SAA, sTNFα, MIP-1α; increased IL-1α, IL-6; modulated IL-8), immunomodulatory activities (decreased CD40, sIL-1β, sIgG, M-CSF, sIL-17A, sIL-6, sIL-17F, sIL-2), tissue remodeling activities (decreased PAI-1, uPAR, αSMA, Keratin 8/18; increased collagen I, MMP-1), and hemostasis-related activities (increased TF).
BioMAP® panels consist of human primary cell-based systems designed to model different aspects of the human body in an in vitro format. BioMAP® systems are constructed with one or more primary cell types from healthy human donors, with stimuli (such as cytokines or growth factors) added to capture relevant signaling networks that naturally occur in human tissue or pathological conditions. Vascular biology is modeled in both a Th1 (3C system) and a Th2 (4H system) inflammatory environment, as well as in a Th1 inflammatory state specific to arterial smooth muscle cells (CASM3C system). Additional systems recapitulate aspects of the systemic immune response including monocyte-driven Th1 inflammation (LPS system) or T cell stimulation (SAg system), chronic Th1 inflammation driven by macrophage activation (Mphg system) and the T cell-dependent activation of B cells that occurs in germinal centers (BT system). […]

B cells = assay: BioMAP proliferation readout, B cells; format: cell-based, human; details: 100 μM, 33 μM, 11 μM
From the text: The X-axis lists the quantitative protein-based biomarker readouts measured in each system. The Y-axis represents a log-transformed ratio of the biomarker readouts for the drug-treated sample (n=1) over vehicle controls (n≥6). The grey region around the Y-axis represents the 95% significance envelope generated from historical vehicle controls. Biomarker activities are annotated when two or more consecutive concentrations change in the same direction relative to vehicle controls, are outside of the significance envelope, and have at least one concentration with an effect size >20% (|log 10 ratio|>0.1). Biomarker key activities are described as modulated if these activities increase in some systems, but decrease in others. […] As summarized in Table 2 below, the compound was active with 35 annotated readouts. […]
Human primary cells in BioMAP® systems are used at early passage (passage 4 or earlier) to minimize adaptation to cell culture conditions and preserve physiological signaling responses. […] Test agents prepared in either DMSO (small molecules; final concentration ≤0.1%) or PBS (biologics) are added at the indicated concentrations 1-hr before stimulation, and remain in culture for 24-hrs or as otherwise indicated (48-hrs, MyoF system; 72-hrs, BT system (soluble readouts); 168-hrs, BT system (secreted IgG)). […]

[2] = Example 3.2, hemostasis-related activities
[3] = Example 3.2, immunomodulatory activities
[4] = Example 3.2, inflammation-related activities
[5] = Example 3.2, tissue remodeling activities

In the case of `C1=NC(c2cncc(C3CCC=N3)c2)CC1` (stereo not drawn) [3,5-bis(3,4-dihydro-2H-pyrrol-2-yl)pyridine], the LDLR ([1]; Example 3.2) is reported as “decrease”, the TF [1, 2] is reported as “increased” and the TM [1, 2] is reported as “decreased”. The CD38 [1, 3] was “decreased”, the CD40 [1, 3] was “decreased” and the HLA-DR [1, 3] was “decreased”. For the same compound, the sIL-1β [1, 3] was “decreased”, the sIL-2 [1, 3] was “decreased” and the sIL-6 [1, 3] was “decreased”. For the same compound, the sIL-17A [1, 3] was “decreased”, the sIL-17F [1, 3] was “decreased” and the sIgG [1, 3] was “decreased”. The “Eotaxin 3” value [1, 4] was “decreased”, the IL-6 [1, 4] was “decreased” and the IL-8 [1, 4] was “modulated”. For the same compound, the MCP-1 [1, 4] was “decreased”, the MIG [1, 4] was “decreased” and the P-selectin [1, 4] was “decreased”. The VCAM-1 [1, 4] was “decreased”, the sPGE2 [1, 4] was “increased” and the sTNFα [1, 4] was “modulated”. For the same compound, the “Collagen IV” value [1, 5] was “decreased”, the MMP9 [1, 5] was “decreased” and the MMP-1 [1, 5] was “decreased”. The PAI-1 [1, 5] was “decreased”, the TIMP-1 [1, 5] was “decreased” and the alphaSMA [1, 5] was “decreased”. For the same compound, the uPAR [1, 5] was “decreased”, the cytotoxicity ([1]; at the concentrations tested in this study) was “not cytotoxic” and the “antiproliferative effect on B cells” value (B cells) was “antiproliferative”.

Reference: US12358892B2, “Metalloenzyme inhibitors for treating cancers, Alzheimer's disease, hemochromatosis, and other disorders” (Miralogx LLC, priority 2020, dated 2025)
